In patent publication US10668040B2, “Treatment of urea cycle disorders in neonates and infants” (Horizon Therapeutics, LLC, priority 2017, dated 2020):

Legend:
Assay type in all cases: in vivo, human
[1] = Example 3: urinary PAA concentrations (first full day and up to end of trial)
Experimental: Urinary PAA Concentrations on the First Full Day of RAVICTI Dosing
PK Evaluable Population: all subjects from the safety population with individual concentration-time profiles that allow computation of meaningful PK parameter values. Measurements were taken at hour 0, between 0.5 and 1.5 hours, between 1.5 and 2.5 hours, between 4 and 6 hours, between 7.5 and 8.5 hours, and between 12 and 24 hours after the first dose of the day on day 1 for stable subjects and on day 2 for subjects in HAC.
Urinary PAA Concentrations Up to End of Trial
PK Evaluable Population: all subjects from the safety population with individual concentration-time profiles that allow computation of meaningful PK parameter values. Measurements were taken at day 7, month 1, month 2, month 3, month 4, month 5, month 6, month 9, month 12, month 15, month 18, month 24, and at the end of the trial.

pediatric UCD patients = test: Pooled ammonia analyses from short term studies
Experimental: Pooled ammonia analyses from short term studies were also conducted.

[2] = test system: pediatric patients with UCDs; test: HPN-100-012 switch-over study: 24-hour blood ammonia on HPN-100 vs NaPBA
Source text: HPN-100-012 was an open-label, fixed sequence, switch-over study of the safety, PK and efficacy of HPN-100 compared to NaPBA in patients with UCDs, with a 12-month safety extension part. […] After review of all the safety data by the DSMB, 8 additional subjects were enrolled in the study after the switch-over phase was completed.

[3] = Pharmacokinetics of HPN-100 and NaPBA, study HPN-100-012; conditions: HPN-100-012 (N = 15)
Source text: (§1) The pharmacokinetics of the short term studies can be summarized as follows. Mean exposure levels of HPN-100 metabolites PBA, PAA, and PAGN after doses of HPN-100 and NaPBA with meals (TID) in pediatric (29 days to 17 years of age) UCD patients in HPN-100-005 and HPN-100-012 studies are summarized below. The mean exposure to PBA, the parent metabolite, and mean exposure to PAGN, the terminal metabolite, show no systematic variation across age groups, while PAA exposure tended to decrease with increasing age, a finding consistent with those from population PK modeling which indicate that the rate of clearance/metabolism of PAA varies directly with body size. While systemic metabolite exposure, assessed as peak plasma concentration (Cmax) or AUC, is generally similar for HPN-100 and NaPBA, the minimum concentration (Cmin-ss) was higher—and/or percent-fluctuation less—for plasma PAGN, a finding consistent with slower gastrointestinal absorption of PBA when administered orally as HPN-100.

[4] = Pharmacokinetics of HPN-100 and NaPBA, study HPN-100-005; conditions: HPN-100-005 (N = 11)
Source text: as §1

[5] = HPN-100-009 (Example 2): urinary PAGN concentrations on first full day of dosing
Experimental: Assessment of Urinary PAGN Concentrations on the First Full Day of RAVICTI® Dosing.
End point description. Urinary PAGN concentration was measured through urine collection. PK Evaluable Population: all subjects from the safety population with individual concentration-time profiles that allow computation of meaningful PK parameter values. End point timeframe: Hour 0 and between 0.5 and 1 hour, 1.5 and 2.5 hours, 4 and 6 hours, 7.5 and 8.5 hours, and between 12 and 24 hours after the first dose of the day on Day 1 for stable subjects and on Day 2 for subjects in HAC.

[6] = original scale, non-inferiority upper margin 1.25

O=C(CCCc1ccccc1)OCC(COC(=O)CCCc1ccccc1)OC(=O)CCCc1ccccc1 [RAVICTI, benzenebutanoic acid, 1′,1″-(1,2,3-propanetriyl) ester]
Urinary PAA concentration ([1]; Age 0 to <2 months, Day 7): 23.7 (±31.2); μg/mL | Urinary PAA concentration ([1]; Age 0 to <2 months, End of trial): 11.6 (±9.0); μg/mL | Urinary PAA concentration ([1]; Age 0 to <2 months, Month 1): 14.6 (±17.2); μg/mL | Urinary PAA concentration ([1]; Age 0 to <2 months, Month 2): 12.3 (±13.3); μg/mL | Urinary PAA concentration ([1]; Age 0 to <2 months, Month 3): 14.4 (±10.7); μg/mL | Urinary PAA concentration ([1]; Age 0 to <2 months, Month 4): 6.4 (±7.1); μg/mL | Urinary PAA concentration ([1]; Age 0 to <2 months, Month 5): 13.2 (±14.0); μg/mL | Urinary PAA concentration ([1]; Age 0 to <2 months, Month 6): 5.5 (±00000); μg/mL | Urinary PAA concentration ([1]; Age 0 to <2 months, Month 9): 11.8 (±8.5); μg/mL | Urinary PAA concentration ([1]; Age 0 to <2 months, Month 12): 6.0 (±3.8); μg/mL | Urinary PAA concentration ([1]; Age 0 to <2 months, Month 15): 4.9 (±0.3); μg/mL | Urinary PAA concentration ([1]; Age 0 to <2 months, first full day, 0.5 to 1.5 hours): 46.2 (±58.6); μg/mL | Urinary PAA concentration ([1]; Age 0 to <2 months, first full day, 1.5 to 2.5 hours): 62.5 (±42.8), μg/mL | Urinary PAA concentration ([1]; Age 0 to <2 months, first full day, 4 to 6 hours): 34.6 (±56.2); μg/mL | Urinary PAA concentration ([1]; Age 0 to <2 months, first full day, 7.5 to 8.5 hours): 22.8 (±25.3); μg/mL | Urinary PAA concentration ([1]; Age 0 to <2 months, first full day, 12 to 24 hours): 35.2 (±51.0); μg/mL | Urinary PAA concentration ([1]; Age 0 to <2 months, first full day, Hour 0): 11.1 (±10.4); μg/mL | Urinary PAA concentration ([1]; Age 2 months to <2 years, Day 7): 5.82 (±2.21); μg/mL | Urinary PAA concentration ([1]; Age 2 months to <2 years, End of trial): 7.0 (±5.16); μg/mL | Urinary PAA concentration ([1]; Age 2 months to <2 years, Month 1): 4.44 (±4.61); μg/mL | Urinary PAA concentration ([1]; Age 2 months to <2 years, Month 2): 3.69 (±1.82); μg/mL | Urinary PAA concentration ([1]; Age 2 months to <2 years, Month 3): 4.65 (±0.49); μg/mL | Urinary PAA concentration ([1]; Age 2 months to <2 years, Month 4): 7.14 (±00000); μg/mL | Urinary PAA concentration ([1]; Age 2 months to <2 years, Month 5): 3.27 (±1.96); μg/mL | Urinary PAA concentration ([1]; Age 2 months to <2 years, Month 6): 1.59 (±00000); μg/mL | Urinary PAA concentration ([1]; Age 2 months to <2 years, Month 9): 4.10 (±1.65); μg/mL | Urinary PAA concentration ([1]; Age 2 months to <2 years, Month 15): 2.04 (±00000); μg/mL | Urinary PAA concentration ([1]; Age 2 months to <2 years, Month 18): 1.64 (±00000); μg/mL | Urinary PAA concentration ([1]; Age 2 months to <2 years, first full day, 0.5 to 1.5 hours): 6.50 (±3.39); μg/mL | Urinary PAA concentration ([1]; Age 2 months to <2 years, first full day, 1.5 to 2.5 hours): 7.29 (±4.10); μg/mL | Urinary PAA concentration ([1]; Age 2 months to <2 years, first full day, 4 to 6 hours): 2.60 (±2.18); μg/mL | Urinary PAA concentration ([1]; Age 2 months to <2 years, first full day, 7.5 to 8.5 hours): 4.48 (±4.38); μg/mL | Urinary PAA concentration ([1]; Age 2 months to <2 years, first full day, 12 to 24 hours): 4.31 (±2.33); μg/mL | Urinary PAA concentration ([1]; Age 2 months to <2 years, first full day, Hour 0): 18.78 (±27.33); μg/mL | abnormal ammonia values (pediatric UCD patients): 15% | Mean blood ammonia ([2]; 8-h time point, HPN-100 Day 10): 23.20 µmol/L | Mean blood ammonia ([2]; 12-hour time point, HPN-100 Day 10, NaPBA Day 1): 28.24 µmol/L | upper 90% CI, blood ammonia 24-hour AUC HPN-100 vs NaPBA [2, 6]: 1.002 | upper 95% CI, blood ammonia 24-hour AUC HPN-100 vs NaPBA [2, 6]: 1.055 | median difference between treatments in ammonia AUC (HPN-100 vs NaPBA) ([2]; pediatric UCD patients 29 days to <6 years): -37.84 µmol·h/L | 24-hour AUC for blood ammonia, HPN-100 (Day 10) compared with NaPBA (Day 1) ([2]; pediatric UCD patients 29 days to <6 years, non-inferiority upper margin 1.25): non-inferior to NaPBA | Mean blood ammonia levels following an overnight fast ([2]; pre-dose and 24 hours post dose): normal | Plasma PAA % Fluctuation ([3]; mean (CV %)): 2141 (145.0) % | Plasma PAA AUC0-24 ([3]; mean (CV %)): 1096 (214.0) μg · h/mL | Plasma PAA CLss/F ([3]; mean (CV %)): 25538 (116.8) mL/min | Plasma PAA Cmax-ss ([3]; mean (CV %)): 84.7 (148.3) μg/mL | Plasma PAA Cmin-ss ([3]; mean (CV %)): 26.1 (360.8) μg/mL | Plasma PAGN % Fluctuation ([3]; mean (CV %)): 907 (116.7) % | Plasma PAGN AUC0-24 ([3]; mean (CV %)): 1131 (71.2) μg · h/mL | Plasma PAGN CLss/F ([3]; mean (CV %)): 10830 (85.6) mL/min | Plasma PAGN Cmax-ss ([3]; mean (CV %)): 85.5 (53.7) μg/mL | Plasma PAGN Cmin-ss ([3]; mean (CV %)): 19.9 (173.4) μg/mL | Plasma PBA % Fluctuation ([3]; mean (CV %)): 1781 (84.6) % | Plasma PBA AUC0-24 ([3]; mean (CV %)): 255 (54.5) μg · h/mL | Plasma PBA CLss/F ([3]; mean (CV %)): 22610 (48.6) mL/min | Plasma PBA Cmax-ss ([3]; mean (CV %)): 36.8 (59.0) μg/mL | Plasma PBA Cmin-ss ([3]; mean (CV %)): 0.750 (192.7) μg/mL | Plasma PAA Tmax-ss ([3]; median): 8.00 h | Plasma PAGN Tmax-ss ([3]; median): 7.92 h | Plasma PBA Tmax-ss ([3]; median): 8.00 h | Plasma PAA % Fluctuation ([4]; mean (CV %)): 3483 (51.5) % | Plasma PAA AUC0-24 ([4]; mean (CV %)): 964 (63.6) μg · h/mL | Plasma PAA CLss/F ([4]; mean (CV %)): 15082 (101.4) mL/min | Plasma PAA Cmax-ss ([4]; mean (CV %)): 90.5 (69.1) μg/mL | Plasma PAA Cmin-ss ([4]; mean (CV %)): 2.99 (122.1) μg/mL | Plasma PAGN % Fluctuation ([4]; mean (CV %)): 1001 (84.5) % | Plasma PAGN AUC0-24 ([4]; mean (CV %)): 1378 (40.2) μg · h/mL | Plasma PAGN CLss/F ([4]; mean (CV %)): 14237 (36.8) mL/min | Plasma PAGN Cmax-ss ([4]; mean (CV %)): 105 (33.5) μg/mL | Plasma PAGN Cmin-ss ([4]; mean (CV %)): 13.1 (64.9) μg/mL | Plasma PBA % Fluctuation ([4]; mean (CV %)): 5690 (56.8) % | Plasma PBA AUC0-24 ([4]; mean (CV %)): 631 (44.9) μg · h/mL | Plasma PBA CLss/F ([4]; mean (CV %)): 20545 (47.2) mL/min | Plasma PBA Cmax-ss ([4]; mean (CV %)): 95.6 (42.0) μg/mL | Plasma PBA Cmin-ss ([4]; mean (CV %)): 1.50 (99.8) μg/mL | U-PAGN Ae ([4]; mean (CV %)): 12501037 (56.9) μg | U-PAGN Ae0-12 ([4]; mean (CV %)): 5611719 (74.7) μg | U-PAGN Ae12-24 ([4]; mean (CV %)): 6889318 (50.1) μg | U-PAGN Fe0-12 ([4]; mean (CV %)): 28.9 (42.1) % | U-PAGN Fe12-24 ([4]; mean (CV %)): 37.4 (32.3) % | U-PAGN Fe % dose ([4]; mean (CV %)): 66.4 (23.9) % | Plasma PAA Tmax-ss ([4]; median): 11.92 h | Plasma PAGN Tmax-ss ([4]; median): 12.00 h | Plasma PBA Tmax-ss ([4]; median): 12.00 h | Urinary PAGN concentration ([5]; Age 2 Months to <2 Years, Hour 0.5 to 1): 4140.2 (±4398.8) μg/mL | Urinary PAGN concentration ([5]; Age 2 Months to <2 Years, Hour 1.5 to 2.5): 3145.2 (±5044.5) μg/mL | Urinary PAGN concentration ([5]; Age 2 Months to <2 Years, Hour 4 to 6): 5201.6 (±4546.6) μg/mL | Urinary PAGN concentration ([5]; Age 2 Months to <2 Years, Hour 7.5 to 8.5): 4290 (±3147.2) μg/mL | Urinary PAGN concentration ([5]; Age 2 Months to <2 Years, Hour 12 to 24): 7561.1 (±6955.7) μg/mL | Urinary PAGN concentration ([5]; Age 2 months to <2 years, Hour 0): 3478.3 (±1775.4) μg/mL
